Patent US11360104B2, “Microbial-based biosensors” (TRUSTEES OF BOSTON UNIVERSITY, priority 2017, dated 2022)
Where two headings read alike, the source gives them in different places.

Columns and labels:
[1] = test system: steroid responsive genome island (SRGI); assay: Whole transcriptome RNA-Seq of steroid treated P. simplex; type: cell-based, Pimelobacter simplex; conditions: P. simplex exposed to steroid vs solvent control, Log2 fold change
Description: (§1) In order to identify steroid binding Transcription Factors, a whole transcriptome RNA sequencing (RNA-Seq) screen was developed (FIG. 7). The growth of Pimelobacter simplex bacteria was profiled with respect to the starting inoculation density, solvent toxicity, and the addition of steroids (FIG. 16). […] P. simplex bacteria were screened against the steroid solvents ethanol (EtOH) and dimethyl sulfoxide (DMSO). […] Steroid growth curves were similarly performed using a starting OD of 0.005 and constant solvent dosing with titrations of steroids. […] P. simplex bacteria were grown in the presence of 700 μM testosterone, 21.88 μM progesterone, 87.50 μM estrone, 21.88 μM 17β-estradiol, 21.88 μM hydrocortisone, or 175.00 μM aldosterone concentrations were selected for comparison.
(§2) Using accession gene tags, genes were annotated for steroid relevant enzymes or transcription factors. […] Allosteric TF binding sequences are often palindromes and typically located near the start of its gene location in an intergenic space. With such a design, the allosteric TF can regulate itself or the open reading frame (ORF) near it in response to its effector molecule. […] Once identified, the TFs were cloned and recombinantly expressed for thorough characterization.
(§3) Cells were grown in 6 mL volumes of media at the OD, solvent, and steroid concentrations found from the growth curves in 14 mL polypropylene round-bottom tubes (Corning #352059) in technical duplicate. The same controls as in the steroid exposure growth curve were used for setting up RNA extraction samples. The cells were incubated at their corresponding temperature with continuous orbital shaking at 150 rpm until the end of lag-phase, mid-log phase, or stationary phase from the start of inoculation. Afterward, samples were removed and a 1:1 ratio of RNAprotect Bacteria Reagent (Qiagen #76506) was added followed by spinning down at 4° C. for 10 minutes at 4000 g. Supernatant was removed and the pellet re-suspended in 300 μL of RNAprotect and transferred into 2.0 mL Safe-Lock Tubes (Eppendorf #3101). The samples were then spun down once again at 4° C. for 10 minutes at 10000 g. Once the supernatant has been removed the samples were placed on ice and ready for RNA extraction. RNA extraction was done by Qiacube (Qiagen #9001292) set to the RNeasy Protect Bacteria Mini Kit protocol of bacterial cell pellet with enzymatic lysis. Tube A was prepared as described except with the addition of 150 mg/mL lysozyme (Sigma-Aldrich #L6876) and 20 mg/mL proteinase K (Roche #03115879001) all diluted in 1xTE buffer. RNA samples were subsequently quantified using Qubit RNA HS Assay Kit (Thermo Fisher Scientific #Q32852) and analyzed using a RNA 6000 Pico Kit (Agilent 5067-1513) in a 2100 Bioanalyzer (Agilent G2939A). RNA samples were either immediately used for RNA-Seq library preparation or stored long-term at −80° C.
(§4) RNA-Seq libraries were then produced from these samples using a slightly modified ScriptSeq v2 RNA-Seq Library Preparation Kit (Illumina 455A/22124) ensuring use of unique index primers through ScriptSeq Index PCR Primers (Sets 1-4) 48 rxns/set (Illumina #SSIP1234).

[2] = test system: P. simplex bacteria (steroid responsive genome island, SRGI); assay: RNA-Seq screen of steroid treated P. simplex against solvent controls; type: cell-based, Pimelobacter simplex; conditions: Log2 fold change vs solvent control
Description: as §1, §2, §3, §4

Pimelobacter simplex = assay: Solvent and steroid exposure growth curves
Description: as §1
In order to properly determine the doubling time of the strain, growth curves were performed. All growth curves were done in 100 μL per well volumes in 96 well flat clear bottom black polystyrene TC-treated microplates which were individually wrapped with a lid and sterile (Corning #3603). Measurements were done by an Infinite M200 Pro (TECAN) spectrophotometer at the temperature suited for P. simplex. Readings were performed over 96 cycles of 15 minutes each at 600 nm absorbance with 25 flashes in a 3×3 (XY-Line) type reads per well. In between reads there was orbital shaking at 150 rpm frequency for a total of 10 minutes. In order to characterize the growth alone, a ½ serial dilution of 9 concentrations from 0.5-0.0020 OD600 nm were prepared in the respective media. Then each concentration was measured as previously described using a microplate reader (TECAN) and normalized against a media background control in technical triplicate. Afterward, an appropriate starting concentration of cells was chosen with a substantially long lag-phase, linear log phase, and a plateau of stationary-phase.
Once an appropriate starting cell concentration was chosen, a secondary growth curve was performed to test the toxicity levels of the solvents used to dissolve steroids of interest. Since the steroids used are heavily hydrophobic, they often need to be dissolved in organic solvents such as DMSO or ethanol which are toxic to bacteria at high concentrations. P. simplex was incubated under microplate reader conditions previously mentioned at a starting OD determined by the first growth curve with DMSO, ethanol, or H2O at ½ serial dilutions for a total of eight concentrations (50-0.39%) tested in technical triplicate. Two controls were included per solvent; a positive control without solvent and a media control which allowed for appropriate normalization. Solvent exposure growth curves allowed for choosing the maximum amount of solvent concentration that strains would sustain while maintaining relative viability in order to determine a range of steroid concentrations which could be used.
A tertiary growth curve was performed to test the toxicity levels of steroid specific to P. simplex. The strain was incubated under microplate reader conditions previously mentioned at a starting OD determined by the first growth curve and the highest solvent concentration corresponding to the steroid of interest with steroid at ½ serial dilutions for a total of seven concentrations tested in singlet. Testosterone, progesterone, 17β-estradiol, hydrocortisone, and aldosterone were all dissolved in ethanol while estrone was dissolved in DMSO. Three controls were included for each steroid; a positive control with the highest tolerable solvent concentration (%), a positive control with media, and a media control which allowed for normalization. Steroid exposure growth curves allowed for choosing the maximum amount of steroid concentration that P. simplex would sustain while maintaining relative viability.

[3] = test system: Pimelobacter simplex PinR (AIY20223.2; SEQ ID NO: 1), his-tagged (AIY-his6); assay: QD-FRET steroid sensor (QD-PinR + DNA-Cy5), steroid-induced TF-DNA unbinding; type: biochemical
Experimental: Fluorescent spectra were analyzed using MATLAB (Mathworks) and were fitted with a sum of 2 Gaussians (D=QD: FWHM=27 nm, λmax=607 nm; A=DNA-Cy5: FWHM=40 nm, λmax=669 nm). The area of each Gaussian was extracted and FD and FA are obtained respectively for the fluorescence of QD (donor) and Cy5 (acceptor).
Raw dose-response curves were obtained by plotting FA/FD as a function of the steroid concentration. Sensor output is the normalization of the fluorescent spectra of the donor and acceptor according to the following equation: […]
Non-normalized dose-response were fitted with Origin Pro 8 software with the non-linear equation: […]
The cross-reactivity of progesterone regarding the different steroids was calculated with the following equation: […]
CdSe/CdS/ZnS QDs were coated with a zwitterionic polymer bearing histamine anchoring functions (P1, SI). Once the hydrophobic QDs were transferred into H2O using a biphasic ligand exchange, his-tagged TFs were self-assembled on the QD surface to produce the QD-TF. Addition of the double stranded, Cy5-labeled TF-binding sequence completed probe assembly as the oligo binds to the TF in the absence of progesterone (PRG). The molar ratios of the QD, TF, and DNA in the sensor were controlled through the stoichiometric ratios of the mixed parts.
Two fluorescent spectra were recorded, one from the QDs and one from the Cy5 due to the FRET.
First, the DNA1 (most binding sequence) has been used to build the first biosensor, named sensor 1. For this sensor, a ratio of QD/TF/DNA of 1/4/18 was chosen. […] In order to homogenize the fluorescent signals in between batches and different sensor variations, FA/FD was normalized to give the signal output. Signal output is then plotted against PRG concentration to give a dose-response curve (FIG. 9C) This curve was fitted with the non-linear equation XX to obtain the half-maximal inhibitory concentration (IC50) (Table 13).
Description for a typical experiment, using a molar ratio of QD/TF/DNA=1/4/18. QDs in (275 uL, 0.15 uM in HEPES 1×, pH 7.6 with 1% BSA) were mixed with AIY-his6 (275 uL, 0.6 uM in HEPES 1× pH 7.6) at room temperature for 45 min. Then, the double-stranded DNA labelled with a Cy5 fluorescent probe at the 3′ and 5′ ends (275 uL, 2.7 uM in HEPES 1× pH 7.6) was added to the mixture. After 30 min, 220 uL of HEPES 1× pH 7.5 and 330 uL of 5× binding buffer (25 mM MgCl2, 25% glycerol, and 250 mg/L Invitrogen™ UltraPure™ Salmon Sperm DNA in Tris-HCl 0.1M) were added and the mixture is left 15 more min at RT.
(§5) 50 uL of the sensor (QD/TF/DNA) was then splitted in 3×9 centrifuge tubes to which 10 uL of progesterone at the desired concentration is added. As such, the final concentration of QD/TF/DNA for the measurements is 25 nM/100 nM/450 nM. A 384 well plate was filled with 60 uL of each solution. The fluorescence intensity was monitored on a spectrofluorimeter from 535 nm to 800 nm exciting at 400 nm, equipped with a 450 nm long-pass filter in emission.

PinR = PinR (Nocardioides simplex (Pimelobacter simplex), UniProt A0A0A1DUF2); assay: Cross-reactivity assay of steroids using sensor 3; type: biochemical; conditions: for % cross-reactivity: relative to progesterone; for % cross-reactivity / P (slope of fit): sensor 3, HEPES 1×
Sequence of PinR (A0A0A1DUF2 entry or part of it): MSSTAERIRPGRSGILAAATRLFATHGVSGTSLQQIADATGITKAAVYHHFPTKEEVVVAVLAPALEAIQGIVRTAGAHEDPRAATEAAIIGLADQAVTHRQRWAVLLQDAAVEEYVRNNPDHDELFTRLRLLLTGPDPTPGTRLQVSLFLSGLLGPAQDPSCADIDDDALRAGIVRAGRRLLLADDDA
Experimental: The cross-reactivity of progesterone regarding the different steroids was calculated with the following equation:
Description for a typical experiment, using a molar ratio of QD/TF/DNA=1/4/18.
as §5, with “As such, the final concentration of QD/TF/DNA for the measurements is 25 nM/100 nM/450 nM.” left out

[4] = P. simplex, starting OD 0.005, constant solvent

| Compound | upregulation of genes inside the SRGI [1] | upregulation of genes inside the SRGI (in words) [2] | highest steroid concentration exhibiting normal growth profile (Pimelobacter simplex; [4]) [µM] | cross-reactivity (in words) ([3]; sensor 3 in HEPES 1×, 0 to 10 uM steroid) | IC50 (PinR) [nM] | % cross-reactivity (PinR) [%] | P (slope of fit) (PinR) | highest steroid concentration exhibiting normal growth profile (Pimelobacter simplex) [µM] | effect on sensor binding/unbinding (in words) ([3]; QD:TF:oligo 1:4:6, [QD]=50 nM) |
| --- | --- | --- | --- | --- | --- | --- | --- | --- | --- |
| C[C@]12CC[C@H]3[C@@H](CCC4=CC(=O)CC[C@@]43C)[C@@H]1CC[C@@H]2O [testosterone, Testosterone] | observed | upregulation of genes inside the SRGI were observed | 700 |  |  |  |  |  |  |
| C[C@]12CC[C@@H]3c4ccc(O)cc4CC[C@H]3[C@@H]1CCC2=O [ESN, Estrone] |  | not when exposed to 17β-estradiol and estrone | 87.50 | No cross-reactivity was observed |  |  |  |  |  |
| C[C@]12CCC(=O)C=C1CC[C@@H]1[C@@H]2[C@@H](O)C[C@]2(C=O)[C@@H](C(=O)CO)CC[C@@H]12 [ALD, Aldosterone] | observed | upregulation of genes inside the SRGI were observed |  |  | 289 ± 36 | 20 ± 2 | 1.65 ± 0.28 | 175.00 |  |
| C[C@]12CCC(=O)C=C1CC[C@@H]1[C@@H]2[C@@H](O)C[C@@]2(C)[C@H]1CC[C@]2(O)C(=O)CO [CRT, Hydrocortisone] | observed | upregulation of genes inside the SRGI were observed |  |  | 180 ± 19 | 33 ± 3 | 1.23 ± 0.13 | 21.88 |  |
| C[C@]12CC[C@@H]3c4ccc(O)cc4CC[C@H]3[C@@H]1CC[C@@H]2O [ESD, 17β-Estradiol] |  | not when exposed to 17β-estradiol and estrone |  |  |  |  |  |  | no impact on the sensor binding/unbinding |
